Source: ChEMBL document CHEMBL1132399, “Synthesis of novel orthoalkylaminophenol derivatives as potent neuroprotective agents in vitro” (Bioorg Med Chem Lett, 1999)

Legend:
HT-22 [1] = test: Tested in vitro for neurotoxicity on murine HT-22 hippocampal cell culture, monitored by LDH assay.; type: functional; conditions: Mus musculus, read-out: TC50 (the source's name)
HT-22 [2] = test: Tested in vitro for neurotoxicity on murine HT-22 hippocampal cell culture, monitored by MTT reduction assay; type: functional; conditions: Mus musculus, read-out: TC50 (the source's name)
HT-22 [3] = test: Maximum tolerated concentration required for neurotoxicity on murine HT-22 hippocampal cell culture, monitored by LDH assay tested in vitro; type: functional, Mus musculus
HT-22 [4] = test: Maximum tolerated concentration required for neurotoxicity on murine HT-22 hippocampal cell culture, monitored by MTT reduction assay tested in vitro; type: functional, Mus musculus
HT-22 [5] = test: Tested in vitro for its neuroprotective activity against L-homocysteic acid(L-HCA) cytotoxicity, in murine HT-22 hippocampal cell culture, monitored by LDH assay.; type: functional, Mus musculus
HT-22 [6] = test: Tested in vitro for its neuroprotective activity against L-homocysteic acid(L-HCA) cytotoxicity, in murine HT-22 hippocampal cell culture, monitored by MTT reduction assay; type: functional, Mus musculus
HT-22 [7] = test: Compound was tested in vitro for its neuroprotective activity against L-homocysteic acid(L-HCA) cytotoxicity in murine HT-22 hippocampal cell culture monitored by MTT reduction assay; type: functional, Mus musculus
[8] = Safety index (MTC/PC50); type: toxicity; conditions: read-out: Safety index

SMILES | CC50 (HT-22 [1]) | CC50 (HT-22 [2]) | MTC (HT-22 [3]) | MTC (HT-22 [4]) | PC50 (HT-22 [5]) | PC50 (HT-22 [6]) | PC50 (HT-22 [7]) | selectivity ratio [8]
O=C(c1cc(O)c(O)c(O)c1)c1ccc(O)c(O)c1O [EXIFONE] | 91 µM | 34 µM | 50 µM | 10 µM | >10 µM | >10 µM | – | –
Cc1c(C)c2c(c(C)c1O)CC[C@@](C)(CCC[C@H](C)CCC[C@H](C)CCCC(C)C)O2 [ALPHA-TOCOPHEROL] | > 200 µM | > 200 µM | >200 µM | >200 µM | 1.7 µM | – | 0.8 µM | > 250
